# Molecular target: Carbonic anhydrase 9 (Homo sapiens, UniProt Q16790)
# Description: Inhibition of recombinant human carbonic anhydrase-9 assessed as reduction in CO2 hydration preincubated for 15 mins followed by CO2 addition measured for 10 to 100 secs by stopped-flow assay
row,Compound,Ki
1,NS(=O)(=O)c1ccc(O)c(NC(=[Se])NC(=O)c2ccc(-c3ccccc3)cc2)c1,69.1 nM
2,NS(=O)(=O)c1ccc(CCNC(=[Se])NC(=O)c2ccccc2)cc1,7.2 nM
3,NS(=O)(=O)c1ccc(CCNC(=[Se])NC(=O)c2ccc(-c3ccccc3)cc2)cc1,4870 nM
4,NS(=O)(=O)c1cccc(NC(=[Se])NC(=O)c2ccccc2)c1,374 nM
5,CCCCCCCc1ccc(C(=O)NC(=[Se])Nc2ccc(S(N)(=O)=O)cc2)cc1,25.1 nM
6,NS(=O)(=O)c1ccc(NC(=[Se])NC(=O)c2ccccc2)cc1,4.6 nM
7,Cc1cccc(C(=O)NC(=[Se])Nc2cccc(S(N)(=O)=O)c2)c1,43.9 nM
8,CC(=O)Oc1ccccc1C(=O)NC(=[Se])Nc1ccc(S(N)(=O)=O)cc1,13.6 nM
9,NS(=O)(=O)c1cccc(NC(=[Se])NC(=O)c2ccc(C(F)(F)F)cc2C(F)(F)F)c1,4700 nM
10,Cc1cc(C(=O)NC(=[Se])Nc2cc(S(N)(=O)=O)ccc2O)ccc1Br,5.8 nM
11,NS(=O)(=O)c1ccc(CCNC(=[Se])NC(=O)c2ccc3c(c2)OCO3)cc1,105 nM
12,Cc1cccc(C(=O)NC(=[Se])NCCc2ccc(S(N)(=O)=O)cc2)c1,146 nM
13,NS(=O)(=O)c1ccccc1NC(=[Se])NC(=O)c1ccccc1,284 nM
14,NS(=O)(=O)c1ccc(NC(=[Se])NC(=O)c2cc(Br)cc(OC(F)(F)F)c2)cc1,3.5 nM
15,NS(=O)(=O)c1ccc(NC(=[Se])NC(=O)c2ccc3c(c2)OCO3)cc1,129 nM
16,CC(=O)Oc1ccccc1C(=O)NC(=[Se])Nc1cc(S(N)(=O)=O)ccc1O,80.8 nM
